# Tests used:
# Assay type in all cases: cell-based, human
# BxPC-3 cells = assay: XTT cell proliferation assay, BxPC-3
# Experimental: (§1) Human PDAC (AsPC-1, BxPC-3, Panc-1 scr, Panc-1 p53-R273H knock-out (KO) hTERT-HPNE), breast (MCF-7), lung (A549), and colon (HT-29) cancer cell lines were purchased from the American Type Culture Collection (ATCC). The MCF-7, A549, Panc-1 scr, Panc-1 p53 KO and HT-29 cell lines were grown in Dulbecco's Modified Eagle Medium (DMEM; Biological Industries, Beit HaEmek (BI), Israel), and the BxPC-3 and AsPC-1 cell lines were cultured in Roswell Park Memorial Institute-1640 (RPMI-1640; BI, Israel) medium. All media was supplemented with 10% fetal bovine serum (FBS), 200 μM L-glutamine (BI), and 1% penicillin-streptomycin (BI). Cells were cultured at 37° C. in a 5% CO2 humidified incubator.
# (§2) Eravacycline dihydrochloride (MedChem Express (MCE)) was dissolved in […] (DDW). Tigecycline (MCE) and omadacycline (MCE) were dissolved in dimethyl sulphoxide (DMSO). All drugs were prepared as 100 mM stock solutions. All cell lines were treated with DMSO as a control (less than 0.1%) or tigecycline, omadacycline, or eravacycline (at the indicated concentrations) for 72 hours. Cell viability and proliferation were determined using the XTT Cell Proliferation Assay Kit (Promega).
# (§3) The XTT Cell Proliferation Assay Kit was used to determine cell viability and proliferation. Cells were seeded in 96-well plates at a density of 4,000 cells per well and allowed to attach overnight in a 5% CO2 incubator at 37° C. After overnight incubation, cells were treated with culture medium or in a medium containing tigecycline, omadacycline, or eravacycline at different concentrations (1, 2, 5, 10, 25, and 50 μM) for the indicated time period. Then, 50 μl XTT reaction solution (0.1 ml activation solution+5 ml XTT reagent solution) was added to each well, and the plate was incubated at 37° C. for two hours. After shaking the plate gently to distribute the dye in the wells, the absorbance was measured with a spectrophotometer (Bio-RadiMark Microplate Absorbance reader) at a wavelength of 450 nm and a reference wavelength of 655 nm.
# To evaluate the half maximal inhibitory concentration (IC50) of tetracycline derivatives on five different cell lines (MCF-7, A549, HT-29, BxPC-3, and AsPC-1), the cells were seeded and allowed to attach overnight. All cells were washed with phosphate buffered saline (PBS) and then cultured in fresh media containing the drugs tigecycline, omadacycline, or eravacycline at an increasing concentration (0-50 μM) for 72 h. Inhibition of cell proliferation was determined using the XTT Cell Proliferation Assay Kit.
# To investigate the effect of tetracycline derivatives on cell proliferation in human breast, lung, colon, and PDAC cells, the inventors treated all cell lines (MCF-7, A549, HT-29, BxPC-3, and AsPC-1) with different concentrations of tigecycline, omadacycline, and eravacycline (1, 2, 5, 10, 25, and 50 μM), with medium used as a control, for 72 h. Then, an XTT assay was performed to determine the growth inhibition rate.
# A549 cells = assay: XTT cell proliferation assay, A549; details: A549, 72 h, 1-50 μM
# Experimental: as §1, §2
# (§4) The XTT Cell Proliferation Assay Kit was used to determine cell viability and proliferation. Cells were seeded in 96-well plates at a density of 4,000 cells per well and allowed to attach overnight in a 5% CO2 incubator at 37° C. […] After shaking the plate gently to distribute the dye in the wells, the absorbance was measured with a spectrophotometer (Bio-RadiMark Microplate Absorbance reader) at a wavelength of 450 nm and a reference wavelength of 655 nm.
# (§5) To evaluate the half maximal inhibitory concentration (IC50) of tetracycline derivatives on five different cell lines (MCF-7, A549, HT-29, BxPC-3, and AsPC-1), the cells were seeded and allowed to attach overnight. […] Inhibition of cell proliferation was determined using the XTT Cell Proliferation Assay Kit. […]
# MCF-7 cells = assay: XTT cell proliferation assay, MCF-7; details: MCF-7, 72 h, 1-50 μM
# Experimental: as §1, §2, §4, §5
# HT-29 cells = assay: XTT cell proliferation assay, HT-29; details: HT-29, 72 h, 1-50 μM
# Experimental: as §1, §2, §4, §5
# HPNE cell line = assay: XTT cell proliferation assay, normal pancreatic HPNE cells; details: 72 h
# Experimental: as §1
# as §3, with “Then, 50 μl XTT reaction solution (0.1 ml activation solution+5 ml XTT reagent solution) was added to each well, and the plate was incubated at 37° C. for two hours.” left out, “nm. […]” for “nm.”
# [1] = test system: cleaved Poly (ADP-ribose) polymerase 1 (C-PARP1); assay: Western blot of C-PARP1 in BxPC-3 cells; details: BxPC-3, 15 μM, 72 h
# Experimental: Following the three-day incubation of BxPC-3 cells with medium alone as a control or medium containing different concentrations of eravacycline, gemcitabine, or doxorubicin, BxPC-3 cells were harvested and lysed. BxPC-3 cells were briefly lysed with a buffer containing 20 mM HEPES (pH 7.4), 150 mM NaCl, 1 mM EGTA, 1 mM EDTA, 10% glycerol, 1 mM MgCl2, 1% Triton X-100, and 10 μL of protease phosphatase inhibitors per 1 mL buffer. After incubation on ice for 45 min, the lysates were sonicated for 15 min (40% amplitude without pulses) and centrifuged at 12,000×g at 4° C., and the supernatants were collected. The supernatants were analyzed for protein concentration using the Bradford assay. Absorbance was recorded on a microplate reader at 595 nm (Bio-RadiMark Microplate Absorbance reader).
# To evaluate the expression of cell apoptosis-related proteins, cleaved Poly (ADP-ribose) polymerase 1 (C-PARP1) was detected using western blot assays. Actin was used as a control. […] Membranes were incubated for 1 h at room temperature with anti-rabbit secondary antibodies (1:1,000, Sigma-Aldrich). β-actin levels were determined using anti-β-actin (1:10,000, Sigma-Aldrich). Immune complexes were detected with a chemiluminescence reagent (Thermo Fisher Scientific, Pierce ECL Plus Substrate), followed by exposure to Kodak X-ray film (Rochester, NY, USA). […]
# POLK = assay: Western blot of POLK protein expression in BxPC-3 cells; details: BxPC-3, 72 h, increasing concentrations
# p53 (mutated in BxPC-3) = assay: Western blot of p53 protein expression in BxPC-3 cells; details: BxPC-3, 72 h, increasing concentrations
smiles,measurement,setting,value
"CN(C)[C@@H]1C(O)=C(C(N)=O)C(=O)[C@@]2(O)C(O)=C3C(=O)c4c(O)c(NC(=O)CN5CCCC5)cc(F)c4C[C@H]3C[C@@H]12 [eravacycline, (4S,4aS,5aR,12aS)-4-(Dimethylamino)-7-fluoro-3,10,12,12a-tetrahydroxy-1,11-dioxo-9-[2-(pyrrolidin-1-yl)acetamido]-1,4,4a,5,5a,6,11,12a-octahydrotetracene-2-carboxamide]",decrease in cell growth,"BxPC-3 cells; BxPC-3, 1 μM, 72 h",27%
same,decrease in cell growth,"BxPC-3 cells; BxPC-3, 10 μM, 72 h",63%
same,decrease in cell growth,"BxPC-3 cells; BxPC-3, 50 μM, 72 h",93%
same,effect on cell survival / viability (in words),"BxPC-3 cells; BxPC-3, 72 h, 1-50 μM",strong and selective viability reduction
same,"suppression of proliferation, up to","BxPC-3 cells; BxPC-3, 72 h, concentration-dependent, 1-50 μM",90-93%
same,cytotoxicity at 25 µM,"BxPC-3 cells; Homo sapiens, BXPC-3, 72 h, read-out: decrease in cell growth / viability, BxPC-3, 25 μM, 72 h",93%
same,IC50,"BxPC-3 cells; Homo sapiens, BxPC-3, 72 h, XTT, read-out: IC50, inhibition of cell proliferation",3.57 µM
same,decrease in cell growth / viability,"BxPC-3 cells; human, 72 h, 25 μM",90%
same,effect on cell survival / proliferation (in words),A549 cells,No significant effect
same,effect on cell survival / proliferation (in words),MCF-7 cells,No significant effect
same,effect on cell survival / proliferation (in words),HT-29 cells,No significant effect
same,effect on cell proliferation of normal pancreatic cells (in words),HPNE cell line,significantly less inhibition than the other PDAC cell lines
same,C-PARP1 expression vs control,[1],increased significantly
same,POLK protein expression vs control,POLK,significantly reduced
same,p53 protein expression vs control,p53 (mutated in BxPC-3),significantly reduced

# — patent US20250325565A1, “ERAVACYCLINE FOR TREATING CANCER” (B. G. NEGEV TECHNOLOGIES AND APPLICATIONS LTD., priority 2022, published 2025)
